Assays:
leukaemia L1210 = assay: Antitumour activity against leukaemia L1210 (survival); type: in vivo, BDF₁ mice; design: MST: unit not given here; conditions: for MST: median survival time; for SURVIVAL (mean days) / SURVIVORS No. at 60 d: in combination CRON 200 mg/kg, CR same as MTZ; for T/C: treated/control
Protocol: Antitumour effects. Male Swiss Schneider mice of 27g body weight were used for the sarcoma S180 experiments: female C₅₇Bl mice of 20g body weight were used for the B16 melanoma experiments; […]; and C₅₇Bl mice of 20g body weight were used for the Lewis lung experiments.
L1210. Spleens were removed from animals 7 days after inoculation of L1210 cells and these spleens were finely minced with 1:100 isotonic saline. 0.1 ml of this spleen and leukaemia L1210 cell suspension was then injected subcutaneously into the flank of each BDF₁.

[1] = system: Lewis lung carcinoma (3LL); assay: Lewis lung carcinoma (3LL): primary tumour and lung secondaries; type: in vivo, C₅₇Bl mice
Protocol: Antitumour effects. Male Swiss Schneider mice of 27g body weight were used for the sarcoma S180 experiments: female C₅₇Bl mice of 20g body weight were used for the B16 melanoma experiments; male BDF₁ mice of 30g body weight were used for the L1210 leukaemia experiments; and C₅₇Bl mice of 20g body weight were used for the Lewis lung experiments.
Lewis lung (3LL). This tumour was prepared for inoculation in a manner identical to that used for the S180 sarcoma.
This tumour metastasizes to the lungs when implanted into the flanks of mice. […]

[2] = Mitozantrone toxicity in mice, with and without Cronassial; type: in vivo, Male Swiss Schneider mice; conditions: host SN
Protocol: (§1) Toxicity acute and chronic. Male Swiss Schneider mice with a body weight of 25-30g were used for these experiments. Mice were usually kept in groups of not more than 8 in standard cages. Food and water were supplied ad libidum. The animals were kept in experimental rooms under closely controlled conditions. They were weighed daily. For acute vincristine toxicity in chicks, 48 hour old SPF chicks were used.
Cronassial®. A solution of this substance, which is a mixture of four gangliosides, was prepared by the addition of a volume of sterile distilled water sufficient to give a concentration of 200 mg/kg in a volume of 0.2 ml. This dose was given to mice of approximately 20g.
(§2) Mitozantrone was made up in an appropriate manner. It was given in a volume of 0.2ml when the injections were given intraperitoneally but when given by another route, the volumes given were indicated in the appropriate Table.

[3] = Mitozantrone toxicity in mice bearing S180, with and without Cronassial; type: in vivo, Male Swiss Schneider mice; conditions: chronic, host SN (+S180), MTZ 5 mg/kg ip days 3.4.5
Protocol: as §1
Sarcoma S180. This tumour has been transplanted in the same strain of mouse for more than 10 years.
Transplantation was done by subcutaneous inoculation of 0.1 ml of a tumour mash made by finely mincing viable tumour tissue and passing it repeatedly through a 26 gauge needle into a sterile Petri dish. 0.1 ml of penicillin (20,000 m/ml) and streptomycin (20,000 m/ml) were added to the mash, as well as neomycin (5 mgs).
as §2

[4] = Blood counts (Coulter counter) after mitozantrone, with and without Cronassial; type: in vivo; conditions: blood by cardiac puncture
[5] = L1210, host BDF1, MTZ 5 mg/kg ip days 0.1.2
[6] = L1210, host BDF1, MTZ 5 mg/kg ip days 1.2.3
[7] = chronic, first pair of Table 4: MTZ 5 ip days 1,2, in combination CRON 200 same time as MTZ
[8] = chronic, second series of Table 4: MTZ 5 ip days 1,2, in combination CRON 200 same time as MTZ
[9] = M, MTZ 4 mg/kg iv x 3, days 1.2.3, in combination CRON 200 mg/kg, mixed as one injection

CO[C@@]12[C@H](COC(N)=O)C3=C(C(=O)C(C)=C(N)C3=O)N1C[C@@H]1N[C@@H]12 [MMC, Mitomycin C]
SURVIVORS 14d (leukaemia L1210; Table 15: BDF mice, L1210 s.c., 8/group, i.p. days 1, 2, 3, MMC 5 mg/kg, in combination CRN 200 mg/kg): 1
MST (leukaemia L1210; Table 15: BDF mice, L1210 s.c., i.p. days 1, 2, 3, MMC 5 mg/kg, in combination CRN 200 mg/kg, control 7.1): 7.0

O=C1c2c(O)ccc(O)c2C(=O)c2c(NCCNCCO)ccc(NCCNCCO)c21 [MTZ, mitozantrone]
SURVIVAL (mean days) (leukaemia L1210; [5]): 6.14 days
SURVIVORS No. at 60 d (leukaemia L1210; [5]): 1/8
SURVIVAL (mean days) (leukaemia L1210; [6]): 17.1 days
SURVIVORS No. at 60 d (leukaemia L1210; [6]): 2/8
SURVIVORS No. at 60 d (leukaemia L1210; L1210, host BDF1, MTZ 5 mg/kg ip days 3.4.5, CMC-controls 0/8): 0/8
SURVIVAL (mean days) (leukaemia L1210; L1210, host BDF1, MTZ 5 mg/kg ip days 3.4.5, CMC-controls 8.7): 25.2 days
SURVIVORS No. at 60 d (leukaemia L1210; L1210, host DBA, MTZ 5 mg/kg ip days 2.3.4, CMC-controls 0/6): 0/6
SURVIVAL (mean days) (leukaemia L1210; L1210, host DBA, MTZ 5 mg/kg ip days 2.3.4, CMC-controls 7.2): 16.8 days
mice died by day 14 ([1]; 3LL in flank, mitozantrone 3.0 mg/kg for 5 days, day 5 to 9 after implantation): 7/8
SURVIVAL (mean days) [2, 7]: 9 days
SURVIVORS No.at 30 d [2, 7]: 0/6
SURVIVAL (mean days) [2, 8]: 11 days
SURVIVORS No.at 30 d [2, 8]: 0/6
SURVIVAL (mean days) [2, 9]: 7.8 days
SURVIVORS d.30 [2, 9]: 0/5
SURVIVORS No.at 30 d [3]: 0/8
SURVIVAL (mean days) ([3]; in combination CRON 200 mg/kg, CR same time MTZ): 8.8 days
MEAN VALUES OF INDIVIDUAL ANIMALS RBC x 10¹²/l ([4]; Day 5., controls 7.9): 7.3 x 10¹²/l
MEAN VALUES OF INDIVIDUAL ANIMALS WBC X 10⁹/l ([4]; Day 5, controls 9.3): 3.5 X 10⁹/l
MEAN VALUES OF INDIVIDUAL ANIMALS PLATELETS x 10⁹/l ([4]; Day 5, controls 632): 631 x 10⁹/l
MEAN VALUES OF INDIVIDUAL ANIMALS PLATELETS x 10⁹/l ([4]; Day 7): 845 x 10⁹/l
MEAN VALUES OF INDIVIDUAL ANIMALS RBC x 10¹²/l ([4]; Day 7): 7.0 x 10¹²/l
MEAN VALUES OF INDIVIDUAL ANIMALS WBC X 10⁹/l ([4]; Day 7): 2.2 X 10⁹/l
MEAN VALUES OF INDIVIDUAL ANIMALS WBC X 10⁹/l ([4]; Day 8, controls 5.2): 3.2 X 10⁹/l
MEAN VALUES OF INDIVIDUAL ANIMALS RBC x 10¹²/l ([4]; Day 8, controls 7.2): 7.1 x 10¹²/l
MEAN VALUES OF INDIVIDUAL ANIMALS PLATELETS x 10⁹/l ([4]; Day 8, controls 649): 1058 x 10⁹/l

COc1cccc2c1C(=O)c1c(O)c3c(c(O)c1C2=O)C[C@@](O)(C(=O)CO)C[C@@H]3O[C@H]1C[C@H](N)[C@H](O)[C@H](C)O1 [ADR, adriamycin]
DEATHS L1210 (leukaemia L1210; Table 11: BDF ♀ 20g, L1210 s.c., 8/group, i.p. days 1, 2, 3, ADR 4.0 mg/kg, in combination CRON 200): 8
DEATHS L1210 (leukaemia L1210; Table 11: BDF ♀ 20g, L1210 s.c., 8/group, i.p. days 1, 2, 3, ADR 6.0 mg/kg, in combination CRON 200): 8
DEATHS L1210 (leukaemia L1210; Table 11: BDF ♀ 20g, L1210 s.c., 8/group, i.p. days 1, 2, 3, ADR 8.0 mg/kg, in combination CRON 200): 8
DEATHS L1210 (leukaemia L1210; Table 12: BDF ♂ 35g (6/12 old), L1210 s.c., 8/group, i.p. days 1, 2, 3, ADR 6.0 mg/kg): 1
DEATHS TOXICITY (leukaemia L1210; Table 12: BDF ♂ 35g (6/12 old), L1210 s.c., 8/group, i.p. days 1, 2, 3, ADR 6.0 mg/kg, in combination CRON 200): 7
DEATHS TOXICITY (leukaemia L1210; Table 12: BDF ♂ 35g (6/12 old), L1210 s.c., 8/group, i.p. days 1, 2, 3, ADR 8.0 mg/kg, in combination CRON 200): 8
DEATHS TOXICITY (leukaemia L1210; Table 12: BDF ♂ 35g (6/12 old), L1210 s.c., 8/group, i.p. days 1, 2, 3, ADR 10.0 mg/kg, in combination CRON (dose not given)): 8
COMMENTS (leukaemia L1210; Table 12: BDF ♂ 35g (6/12 old), L1210 s.c., i.p. days 1, 2, 3, ADR 8.0 mg/kg): Toxic
COMMENTS (leukaemia L1210; Table 12: BDF ♂ 35g (6/12 old), L1210 s.c., i.p. days 1, 2, 3, ADR 10.0 mg/kg, bracket spans ADR and ADR/CRON lines): ) Toxic
DEATHS TOXICITY (leukaemia L1210; Table 13: BDF ♀ 25g (2-3/12 old), L1210 s.c., 7/group, i.p. days 1, 2, 3, ADR 10.0 mg/kg, in combination CRON 200): 7
DEATHS TOXICITY (leukaemia L1210; Table 13: BDF ♀ 25g (2-3/12 old), L1210 s.c., 7/group, i.p. days 1, 2, 3, ADR 12.5 mg/kg, in combination CRON 200): 7
DEATHS TOXICITY (leukaemia L1210; Table 13: BDF ♀ 25g (2-3/12 old), L1210 s.c., 7/group, i.p. days 1, 2, 3, ADR 15.0 mg/kg, in combination CRON (dose not given)): 7
COMMENTS (leukaemia L1210; Table 13: BDF ♀ 25g (2-3/12 old), L1210 s.c., i.p. days 1, 2, 3, ADR 12.5 mg/kg, bracket spans ADR and ADR/CRON lines): } Toxic
COMMENTS (leukaemia L1210; Table 13: BDF ♀ 25g (2-3/12 old), L1210 s.c., i.p. days 1, 2, 3, ADR 15.0 mg/kg, bracket spans ADR and ADR/CRON lines): } Toxic
MST (leukaemia L1210; Table 11: BDF ♀ 20g, L1210 s.c., i.p. days 1, 2, 3, ADR 4.0 mg/kg, in combination CRON 200, control 6.8): 10.8
MST (leukaemia L1210; Table 11: BDF ♀ 20g, L1210 s.c., i.p. days 1, 2, 3, ADR 6.0 mg/kg, in combination CRON 200, control 6.8): 9.7
MST (leukaemia L1210; Table 11: BDF ♀ 20g, L1210 s.c., i.p. days 1, 2, 3, ADR 8.0 mg/kg, in combination CRON 200, control 6.8): 11.8
MST (leukaemia L1210; Table 12: BDF ♂ 35g (6/12 old), L1210 s.c., i.p. days 1, 2, 3, ADR 6.0 mg/kg, in combination CRON 200, control 7.0): 9.38
MST (leukaemia L1210; Table 12: BDF ♂ 35g (6/12 old), L1210 s.c., i.p. days 1, 2, 3, ADR 8.0 mg/kg, in combination CRON 200, control 7.0): 5.8
MST (leukaemia L1210; Table 12: BDF ♂ 35g (6/12 old), L1210 s.c., i.p. days 1, 2, 3, ADR 10.0 mg/kg, in combination CRON (dose not given), control 7.0): 5.5
MST (leukaemia L1210; Table 13: BDF ♀ 25g (2-3/12 old), L1210 s.c., i.p. days 1, 2, 3, ADR 10.0 mg/kg, in combination CRON 200, control 10.6): 10.3
MST (leukaemia L1210; Table 13: BDF ♀ 25g (2-3/12 old), L1210 s.c., i.p. days 1, 2, 3, ADR 12.5 mg/kg, in combination CRON 200, control 10.6): 5.4
MST (leukaemia L1210; Table 13: BDF ♀ 25g (2-3/12 old), L1210 s.c., i.p. days 1, 2, 3, ADR 15.0 mg/kg, in combination CRON (dose not given), control 10.6): 5.1
T/C (leukaemia L1210; Table 11: BDF ♀ 20g, L1210 s.c., i.p. days 1, 2, 3, ADR 4.0 mg/kg, in combination CRON 200): 159
T/C (leukaemia L1210; Table 11: BDF ♀ 20g, L1210 s.c., i.p. days 1, 2, 3, ADR 6.0 mg/kg, in combination CRON 200): 135
T/C (leukaemia L1210; Table 11: BDF ♀ 20g, L1210 s.c., i.p. days 1, 2, 3, ADR 8.0 mg/kg, in combination CRON 200): 174
T/C (leukaemia L1210; Table 12: BDF ♂ 35g (6/12 old), L1210 s.c., i.p. days 1, 2, 3, ADR 6.0 mg/kg, in combination CRON 200): 134
T/C (leukaemia L1210; Table 12: BDF ♂ 35g (6/12 old), L1210 s.c., i.p. days 1, 2, 3, ADR 8.0 mg/kg, in combination CRON 200): 83
T/C (leukaemia L1210; Table 12: BDF ♂ 35g (6/12 old), L1210 s.c., i.p. days 1, 2, 3, ADR 10.0 mg/kg, in combination CRON (dose not given)): 79
T/C (leukaemia L1210; Table 13: BDF ♀ 25g (2-3/12 old), L1210 s.c., i.p. days 1, 2, 3, ADR 10.0 mg/kg, in combination CRON 200): 97
T/C (leukaemia L1210; Table 13: BDF ♀ 25g (2-3/12 old), L1210 s.c., i.p. days 1, 2, 3, ADR 12.5 mg/kg, in combination CRON 200): 51
T/C (leukaemia L1210; Table 13: BDF ♀ 25g (2-3/12 old), L1210 s.c., i.p. days 1, 2, 3, ADR 15.0 mg/kg, in combination CRON (dose not given)): 48
COMMENTS (survival) ([1]; C57Bl mice, 3LL s.c., 8/group, ADR 3 mg/kg i.p. days 6-10, in combination CRN 200 mg/kg): All ADR alone animals dead by d17
